What was measured:
MC4 receptor = MC4 receptor (Homo sapiens, UniProt P32245); assay: MC4 receptor functional potency (EC50), Protocol E of WO 2005/077935; assay type: cell-based; conditions: read-out: functional potency at the MC4 receptor expressed as an EC50
Description: MC5 and MC4 activity was determined as described by assay protocols D and E, respectively, in US2005/0176772 (pages 28-30).

[1] = test system: men with psychogenic and organic ED; conditions: cited from earlier work

MC4 receptor, sequence (P32245 whole entry): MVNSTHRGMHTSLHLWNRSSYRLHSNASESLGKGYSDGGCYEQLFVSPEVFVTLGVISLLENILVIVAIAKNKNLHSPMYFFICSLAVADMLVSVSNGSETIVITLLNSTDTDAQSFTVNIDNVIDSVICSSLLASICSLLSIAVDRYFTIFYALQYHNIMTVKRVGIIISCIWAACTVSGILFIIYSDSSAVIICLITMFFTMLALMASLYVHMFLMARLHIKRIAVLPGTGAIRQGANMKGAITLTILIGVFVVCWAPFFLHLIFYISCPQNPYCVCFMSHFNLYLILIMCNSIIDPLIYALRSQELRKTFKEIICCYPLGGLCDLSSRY

Compound | EC50 (MC4 receptor) [nM] | increased sexual desire reported (share of doses) ([1]; 13/19 doses, questionnaire, P<0.01 vs placebo) [%] | subjects with severe nausea ([1]; dose of 0.025 mg/kg) [%] | penile erection (number of men) ([1]; in the absence of sexual stimulation, men with psychogenic and organic ED) | mean duration of Rigiscan tip rigidity >80% ([1]; penile rigidity monitored for 6 hours using RigiScan) [min]
CO[C@H]1CN(C(=O)[C@@H]2CN(c3cccnn3)C[C@H]2c2ccc(F)cc2F)CC[C@]1(OC)c1ccccc1 [Example 8, 3-[(3R,4S)-3-(2,4-difluorophenyl)-4-{[(3S,4S)-3,4-dimethoxy-4-phenylpiperidin-1-yl]carbonyl}pyrrolidin-1-yl]pyridazine] | 1.5 | – | – | – | –
CCO[C@@H]1CN(C(=O)[C@@H]2CN(c3cccnn3)C[C@H]2c2ccc(F)cc2F)CC[C@@]1(O)c1ccccc1 [Example 13, (3R,4R)-1-{[(3S,4R)-4-(2,4-difluorophenyl)-1-pyridazin-3-ylpyrrolidin-3-yl]carbonyl}-3-ethoxy-4-phenylpiperidin-4-ol] | 44 | – | – | – | –
CO[C@H]1CN(C(=O)[C@@H]2CN(c3cccnn3)C[C@H]2c2ccc(F)cc2F)CC[C@]1(OC)c1ccc(F)cc1 [Example 15, 3-[(3R,4S)-3-(2,4-difluorophenyl)-4-{[(3S,4S)-4-(4-fluorophenyl)-3,4-dimethoxypiperidin-1-yl]carbonyl}pyrrolidin-1-yl]pyridazine] | 11.5 | – | – | – | –
Melanotan II | – | 68 | 12.9 | 17 of 20 | 41
